# Patent US20230233583A1, “USE OF PHYTOCANNABINOIDS FOR TREATING MULTIPLE MYELOMA” (priority 2020, published 2023)
# Key:
# [1] = test system: MM cell lines U266, SKO and RPMI; experiment: Annexin-V/PI staining, FACS analysis; format: cell-based, human; settings: 48 hours, daily, CBG, CBN, CBDV 25 μM, CBC 75 μM
# Procedure: Cell lines were treated for 48 hours with CBG (25 μM), CBN (25 μM), CBDV (25 μM) or CBC (75 μM) and the percentage of Annexin-V/PI positive cells were determined by FACS analysis. Values in overlays on each plot: upper left=necrotic cells; upper right=late death cells (both apoptotic and necrotic); lower left=live cells; and lower right=apoptotic cells. Data for each phytocannabinoid (lower plots in each Figure) expressed as percentage of PI positive cells with respect to vehicle treated cells (upper plots in each Figure).
# Apoptosis assays and PI staining: Cell death was evaluated using the Annexin V-FITC Apoptosis detection Kit (eBioscience) followed by biparametric fluorescence-activated cell sorting (FACS) analysis. Cells, at a density of 4×10^4 cells/ml, were treated with CBG, CBC, CBN or CBDV for a maximum of 48 hours, with daily administration, and then incubated with Annexin V-FITC and propidium iodide (PI), following the protocol provided. The percentage of positive cells determined over 10,000 events was analysed on a FACScan cytofluorimeter using the CellQuest software.
# (§1) Phytocannabinoids induce necrotic cell death in MM cell lines: To evaluate the cytotoxic mechanism induced by the phytocannabinoids, MM cell lines were treated daily with a cytotoxic dose for each phytocannabinoid (CBG: 25 μM; CBC 75 μM; CBN 25 μM; CBDV 25 μM) for 48 hours and then Annexin-V/PI cell positivity was evaluated by FACS analysis. The results evidenced that all of the phytocannabinoids induced necrotic cell death but had different efficacies (FIGS. 5-16). To confirm the necrotic cell death mechanism, MM cell lines were treated as above and DNA damage was evaluated by H2AX (a marker to examine the DNA damage produced and the subsequent repair of the DNA lesion) Western blot analysis and Comet assay (permits the analysis of DNA damage in single cell preparations). The result confirmed the DNA damage induced by the phytocannabinoid analysed. In particular, an increase of H2AX levels were observed by Western blot (FIGS. 17-20) and DNA damage by Comet assay that evidenced structures resembling comets in the treated cell lines (FIGS. 21-24).
# RPMI = experiment: MTT cytotoxicity assay in RPMI MM cell line; settings: for IC50: Homo sapiens, 72 h, read-out: IC50 (μM) ± S.D.; for % VIABILITY ± S.D.: RPMI, daily, 72 hours, vs vehicle
# Procedure: (§2) MTT cytotoxicity assay: MM cell lines (4×10^4 cells/ml) were seeded in 96-well plates, in a final volume of 100 μl/well. After 24 hours, CBG, CBC, CBN, CBDV alone and in combination or vehicle were added at different concentrations, for 72 hours. At least six replicates were used for each treatment. At the indicated time point, cell viability was assessed by adding 0.8 mg/ml of 3-[4,5-dimethylthiazol-2-yl]-2,5 diphenyl tetrazolium bromide (MTT) (Sigma-Aldrich) to the media. After 3 hours, the plates were centrifuged, the supernatant was removed, and the pellet was solubilized with 100 μl/well dimethyl sulfoxide (DMSO). The absorbance of the samples against a background control (medium alone) was measured at 570 nm using an ELISA reader microliter plate (BioTek™ Instruments, Winooski, Vt., USA).
# (§3) Cells were treated with different doses of CBG, CBC, CBN and CBDV (up to 100 μM) and percentage of cell viability was evaluated by the MTT assay.
# (§4) The cannabinoids were administered daily for 72 hours, as in previous experiments at the desired doses. Each combination was evaluated in six wells and in two separate experiments. MTT assay was used to analyze the cell cytotoxicity. The values in the tables are represented as % of cell viability compared to vehicle-treated cells.
# U266 = experiment: MTT cytotoxicity assay in U266 MM cell line; settings: for IC50: Homo sapiens, U-266, 72 h, read-out: IC50 (μM) ± S.D.; for % VIABILITY ± S.D.: daily, 72 hours, vs vehicle
# Procedure: as §2, §3, §4
# [2] = test system: MM cell lines SKO, U266 and RPMI; experiment: Alkaline Comet assay; format: cell-based, human; settings: 48 hrs, CBG, CBN, CBDV 25 μM, CBC 75 μM
# Procedure: Damage to cellular DNA of the cell lines SKO (upper images in each of FIGS. 21-24), U266 (middle images in each of FIGS. 21-24) and RPMI (lower images in each of FIGS. 21-24) due to exposure to CBG (25 μM; FIG. 21), CBC (75 μM; FIG. 22), CBN (25 μM; FIG. 23) and CBDV (25 μM; FIG. 24) were assessed using the Comet assay.
# Alkaline Comet Assay: U266, SKO and RPMI myeloma cell lines were plated in 6-well plates (4×10^4 cell/well) one day before treatment exposure. Semi-confluent cultures were exposed for 48 hrs with 25 μM of CBG, CBN or CBDV or 75 μM of CBC. Controls, treated with vehicle, were included in all series. The Comet assay was performed under alkaline conditions following the ABCAM™ protocol. Briefly, after exposure to the phytocannabinoid, the cells were incubated for 48 hrs in Roswell Park Memorial Institute (RPMI) medium. Then the cells were resuspended in 1×PBS and added to 75 μL of molten (37° C.) 0.5% low-melting-point agarose gel to achieve a cell concentration of 1×10^5 cells/mL. The agarose was pipetted onto the Comet slides. Slides were stored in the dark at 4° C. for 10 min before adding pre-chilled lysis buffer for 45 min. The slides were immersed in freshly prepared alkaline solution (0.25 M NaOH containing […] EDTA, pH 12.6) for 30 min at room temperature. Slides were then removed and washed twice with alkaline solution for 5 min. Gel electrophoresis was performed at 1 V/cm for 30 min (running amperage 3-5 mA with the distance between the two electrodes of 25 cm). The Comet slides were washed with 70% ethanol for 5 min and air-dried for one hour at room temperature. 100 μL of diluted SYBR™ Green solution was placed onto each dried agarose circle. The slides were then read with a fluorescence microscope (LEIKA).
# as §1, with “In particular, an increase of H2AX levels were observed by Western blot (FIGS. 17-20) and DNA damage by Comet assay that evidenced structures resembling comets in the treated cell lines (FIGS. 21-24).” left out
# [3] = single phytocannabinoid 12.5 μM
# [4] = U266, single phytocannabinoid 12.5 μM
# [5] = U266, single phytocannabinoid 25 μM
SMILES,"necrotic cell death (Annexin-V/PI positive cells), in words [1]",IC50 (RPMI),% VIABILITY ± S.D. (RPMI; [3]),% VIABILITY ± S.D. (RPMI; single phytocannabinoid 25 μM),IC50 (U266),% VIABILITY ± S.D. (U266; [4]),% VIABILITY ± S.D. (U266; [5]),"DNA damage by Comet assay, in words [2]"
"C=C(C)[C@@H]1CCC(C)=C[C@H]1c1c(O)cc(CCC)cc1O [CBDV, 2-[(1R,6R)-3-methyl-6-prop-1-en-2-ylcyclohex-2-en-1-yl]-5-propylbenzene-1,3-diol]",induce necrosis,21.7 ± 1.1 µM,70.2 ± 5.3%,40.2 ± 2.4%,26.7 ± 1.3 µM,88.6 ± 7.2%,76.2 ± 6.5%,induce DNA damage
"CCCCCc1cc(O)c(C/C=C(\C)CCC=C(C)C)c(O)c1 [CBG, 2-[(2E)-3,7-dimethylocta-2,6-dienyl]-5-pentylbenzene-1,3-diol]",induce necrosis,31.4 ± 1.9 µM,99.3 ± 8.2%,69.1 ± 5.5%,35.9 ± 2.2 µM,97.4 ± 6.5%,87.7 ± 5.8%,induce DNA damage
"CCCCCc1cc(O)c2c(c1)OC(C)(CCC=C(C)C)C=C2 (centres unmarked) [CBC, 2-methyl-2-(4-methylpent-3-enyl)-7-pentylchromen-5-ol]",induce necrosis,49.6 ± 2.1 µM,104.9 ± 3.6%,98.3 ± 5.1%,78.8 ± 3.4 µM,106.2 ± 3.5%,101.2 ± 7.2%,induce DNA damage
"CCCCCc1cc(O)c2c(c1)OC(C)(C)c1ccc(C)cc1-2 [CBN, 6,6,9-trimethyl-3-pentylbenzo[c]chromen-1-ol]",induce necrosis,23.6 ± 0.9 µM,102.6 ± 7.4%,81.1 ± 7.7%,26.5 ± 1.8 µM,89.6 ± 6.6%,61.1 ± 4.8%,induce DNA damage
